Reference: ChEMBL document CHEMBL4229572, “VU6007477, a Novel M1 PAM Based on a Pyrrolo[2,3-b]pyridine Carboxamide Core Devoid of Cholinergic Adverse Events” (ACS Med Chem Lett, 2018)
Where a chain is given by its changes, count along the chain named.

Key:
P-gp [1] = test: Substrate activity at P-gp (unknown origin) assessed as efflux ratio of permeability; assay type: ADME; details: human, not told
[2] = Protein binding in human plasma assessed as unbound fraction at 5 uL measured after 4 hrs by LC-MS/MS based equilibrium dialysis method; assay type: ADME, cell-free
[3] = molecular target: T1, Muscarinic acetylcholine receptor M1 (Homo sapiens, UniProt P11229); test: (§1) Positive allosteric modulation of human M1 receptor expressed in CHO cells assessed as increase in acetylcholine-induced calcium mobilization pretreated for 2.5 mins followed by acetylcholine addition and measured after 1 min by Fluo-4-AM dye based assay; assay type: functional, cell-based
T1 sequence (P11229 whole entry): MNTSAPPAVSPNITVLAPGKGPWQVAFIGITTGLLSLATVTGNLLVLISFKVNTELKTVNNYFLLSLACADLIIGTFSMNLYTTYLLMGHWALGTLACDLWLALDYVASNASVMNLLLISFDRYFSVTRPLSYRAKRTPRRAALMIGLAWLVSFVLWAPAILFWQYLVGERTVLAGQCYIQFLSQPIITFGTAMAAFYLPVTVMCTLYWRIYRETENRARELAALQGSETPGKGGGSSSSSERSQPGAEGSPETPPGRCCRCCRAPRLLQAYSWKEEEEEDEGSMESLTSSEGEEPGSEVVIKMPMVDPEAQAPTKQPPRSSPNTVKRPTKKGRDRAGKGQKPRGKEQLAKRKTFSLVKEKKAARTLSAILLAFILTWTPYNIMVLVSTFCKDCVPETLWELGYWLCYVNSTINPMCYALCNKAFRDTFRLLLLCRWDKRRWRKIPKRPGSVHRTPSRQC

[4] = molecular target: T2, Muscarinic acetylcholine receptor M1 (Homo sapiens) (UniProt P11229); test: as §1; assay type: functional, cell-based
T2 sequence (whole entry): T1 sequence (P11229 whole entry)

P-gp [5] = test: Substrate activity at P-gp (unknown origin) assessed as apparent permeability; assay type: ADME; details: human, not told
Mus musculus = test: Cholinergic toxicity in C57BL/6J mouse assessed as induction of seizure activity at 100 mg/kg, ip measured within 30 mins; assay type: organism-based; details: in vivo, 0.5 h
[6] = molecular target: T3, Muscarinic acetylcholine receptor M4 (Homo sapiens, UniProt P08173); test: Positive allosteric modulation of human M4 receptor expressed in CHO cells co-expressing Gqi5 assessed as increase in acetylcholine-induced calcium mobilization pretreated for 2.5 mins followed by acetylcholine addition and measured after 1 min by Fluo-4-AM dye based assay; assay type: functional, cell-based
T3 sequence (P08173 whole entry): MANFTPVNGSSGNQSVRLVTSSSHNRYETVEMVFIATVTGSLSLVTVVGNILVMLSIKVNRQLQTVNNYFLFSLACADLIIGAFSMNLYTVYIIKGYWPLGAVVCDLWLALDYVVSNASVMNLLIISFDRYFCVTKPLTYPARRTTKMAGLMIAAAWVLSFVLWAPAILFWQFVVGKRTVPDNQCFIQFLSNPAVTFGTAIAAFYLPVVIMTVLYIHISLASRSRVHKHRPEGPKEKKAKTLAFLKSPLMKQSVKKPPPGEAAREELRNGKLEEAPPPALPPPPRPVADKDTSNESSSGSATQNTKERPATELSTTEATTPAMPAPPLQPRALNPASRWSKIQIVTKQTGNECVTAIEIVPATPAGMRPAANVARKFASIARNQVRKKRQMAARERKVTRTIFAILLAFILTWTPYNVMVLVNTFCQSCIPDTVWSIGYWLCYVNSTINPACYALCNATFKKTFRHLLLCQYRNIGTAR

[7] = molecular target: Muscarinic acetylcholine receptor M3 (Homo sapiens, UniProt P20309); test: Positive allosteric modulation of human M3 receptor expressed in CHO cells assessed as increase in acetylcholine-induced calcium mobilization pretreated for 2.5 mins followed by acetylcholine addition and measured after 1 min by Fluo-4-AM dye based assay; assay type: functional, cell-based
Sequence of Muscarinic acetylcholine receptor M3 (P20309 whole entry): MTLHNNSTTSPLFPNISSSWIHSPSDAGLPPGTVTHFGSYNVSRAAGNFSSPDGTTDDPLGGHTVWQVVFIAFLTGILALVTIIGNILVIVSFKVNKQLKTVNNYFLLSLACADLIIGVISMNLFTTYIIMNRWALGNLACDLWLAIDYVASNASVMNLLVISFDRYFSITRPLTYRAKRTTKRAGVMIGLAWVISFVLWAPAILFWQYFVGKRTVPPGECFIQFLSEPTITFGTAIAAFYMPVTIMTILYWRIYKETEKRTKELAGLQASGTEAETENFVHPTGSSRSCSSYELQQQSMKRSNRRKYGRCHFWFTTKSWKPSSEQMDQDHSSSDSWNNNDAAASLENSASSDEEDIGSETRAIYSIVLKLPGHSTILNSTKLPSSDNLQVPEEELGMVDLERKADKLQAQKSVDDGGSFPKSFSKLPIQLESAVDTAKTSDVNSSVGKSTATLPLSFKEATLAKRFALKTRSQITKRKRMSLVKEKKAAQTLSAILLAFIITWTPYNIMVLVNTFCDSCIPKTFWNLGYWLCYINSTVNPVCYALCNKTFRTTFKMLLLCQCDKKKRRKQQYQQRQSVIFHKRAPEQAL

[8] = Drug level in C57BL/6J mouse brain at 100 mg/kg, ip measured after 1 hr; assay type: ADME, organism-based; details: read-out: Drug uptake
[9] = molecular target: T4, Muscarinic acetylcholine receptor M1 (Rattus norvegicus, UniProt P08482); test: Agonist activity at rat M1 receptor expressed in CHO cells assessed as increase in calcium mobilization measured after 2.5 mins by Fluo-4-AM dye based assay; assay type: functional, cell-based
T4 sequence (P08482 whole entry): T1 sequence (P11229 whole entry) with A5V, T254S, P309S, R320K, A337G, I413V

[10] = molecular target: T5, Muscarinic acetylcholine receptor M2 (Homo sapiens, UniProt P08172); test: Positive allosteric modulation of human M2 receptor expressed in CHO cells co-expressing Gqi5 assessed as increase in acetylcholine-induced calcium mobilization pretreated for 2.5 mins followed by acetylcholine addition and measured after 1 min by Fluo-4-AM dye based assay; assay type: functional, cell-based
T5 sequence (P08172 whole entry): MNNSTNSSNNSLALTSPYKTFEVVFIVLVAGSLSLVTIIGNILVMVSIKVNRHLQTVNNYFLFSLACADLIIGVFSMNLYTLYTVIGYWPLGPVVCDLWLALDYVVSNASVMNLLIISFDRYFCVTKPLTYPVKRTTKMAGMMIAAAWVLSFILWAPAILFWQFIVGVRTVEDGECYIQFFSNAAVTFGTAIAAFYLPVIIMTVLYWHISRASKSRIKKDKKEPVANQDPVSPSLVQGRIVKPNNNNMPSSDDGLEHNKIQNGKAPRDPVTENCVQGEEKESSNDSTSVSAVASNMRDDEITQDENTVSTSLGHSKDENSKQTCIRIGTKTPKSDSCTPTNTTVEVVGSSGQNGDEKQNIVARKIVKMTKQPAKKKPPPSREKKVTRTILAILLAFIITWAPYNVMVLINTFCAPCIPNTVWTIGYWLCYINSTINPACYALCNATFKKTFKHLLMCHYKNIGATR

[11] = Total brain to plasma partition coefficient, Kp in cannulated Sprague-Dawley rat at 0.2 mg/kg, iv administered via jugular vein as cassette dose measured after 0.25 hrs by LC-MS/MS analysis; assay type: ADME, organism-based; details: Sprague-Dawley, brain and plasma
[12] = Protein binding in rat plasma assessed as unbound fraction at 5 uL measured after 4 hrs by LC-MS/MS based equilibrium dialysis method; assay type: ADME, cell-free
[13] = Ratio of unbound brain to plasma concentration in cannulated Sprague-Dawley rat at 0.2 mg/kg, iv administered via jugular vein as cassette dose measured after 0.25 hrs by LC-MS/MS analysis; assay type: ADME, organism-based; details: Sprague-Dawley, brain and plasma, read-out: K(p,uu,brain)
[14] = molecular target: T1, Muscarinic acetylcholine receptor M1; test: Agonist activity at human M1 receptor expressed in CHO cells assessed as increase in calcium mobilization measured after 2.5 mins by Fluo-4-AM dye based assay; assay type: functional, cell-based

Cn1cc(-c2ccc(Cc3cc(C(=O)NC4CCOCC4)nc4c3ccn4C)cn2)cn1
efflux ratio (P-gp [1]): 4.5 | fraction unbound at 4 h, 5 uL [2]: 0.04 | EC50 [3]: 0.32 µM | %max [4]: 84% | Papp (P-gp [5]): 12 ×10⁻⁶ cm/s | Activity (Mus musculus): Non-Toxic | EC50 [6]: > 30 µM | EC50 [7]: > 30 µM | concentration at 1 h [8]: 7 µM | EC50 ([9]; cho, read-out: EC50): > 10 µM | EC50 ([9]; read-out: pEC50 (converted)): > 10 µM | EC50 [10]: > 30 µM | Kp at 0.25 h [11]: 0.28 | fraction unbound at 4 h, 5 uL [12]: 0.06 | Kp uu at 0.25 h [13]: 0.32 | EC50 [14]: 0.324 µM
